# Where two headings read alike, the source gives them in different places.
# Tests used:
# K-12 E. coli [1] = assay: MIC, K-12 E. coli; assay type: cell-based, Escherichia coli; settings: compound alone
# Text: (§1) Minimal Inhibitory Concentration (MIC) Procedure. […] Streak the E. coli (DH5α or K-12 MG1655) strain on L.B agar plates. […] Prepare initial concentration of all the compounds required. • 5. […] Vortex each test tube for 2-3 seconds. • 9. […] Vortex each test tube for 2-3 seconds. • 11.
# B. subtilis = assay: Minimum inhibitory concentration (MIC), B. subtilis; assay type: cell-based, Bacillus subtilis; settings: compound alone
# Method: Among the organisms studied are several strains of the bacterium E. coli. […] Experiments were conducted to determine the MIC values for the synthetic amphiphiles known as lariat ethers according to the procedures described in Antimicrobial M07-A9: Methods for Dilution Antimicrobial Susceptibility Tests for Bacteria that Grow Aerobically; Clinical and Laboratory Standards Institute, 2012; Vol. 32, 67 pp. MIC values so determined for several lariat ethers and for several antibiotics are shown in Table 1.
# E. coli = assay: Minimum inhibitory concentration (MIC), E. coli; assay type: cell-based, Escherichia coli; settings: compound alone
# Text: (§2) Among the organisms studied are several strains of the bacterium E. coli.
# as §1
# K-12 E. coli [2] = assay: Combination of amphiphile and antibiotic against K-12 E. coli; assay type: cell-based, Escherichia coli
# Method: (§4) Steps 1-7, described in the MIC procedure, shown in Example 2, were followed. • 2. While the E. coli grew, the appropriate volume of compound was added to each test tube. • 3. Antibiotics were added at the required volume of solution to obtain the desired concentration in each test tube. […] Each test tube was vortexed for 2-3 seconds. • 5. Steps 10-12 from the MIC procedure, shown in Example 2, were then executed.
# HEK-293 cells = assay: Toxicity of lariat ethers to HEK-293 cells (MTT assay); assay type: cell-based
# Text: The error bars represent the standard error. […]
# [3] = tested on: tetracycline resistant E. coli (tetA efflux pump); assay: microbe, parasite or virus in culture; assay type: cell-based, Escherichia coli; settings: compound alone; tetracycline resistant E. coli
# Text: as §2
# Minimal Inhibitory Concentration (MIC) Procedure. […] Streak the E. coli (DH5α or K-12 MG1655) strain on L.B agar plates. […] Prepare initial concentration of all the compounds required. • 5. […] Vortex each test tube for 2-3 seconds. • 9. […] Vortex each test tube for 2-3 seconds. • 11. […]
# (§3) The minimal inhibitory concentrations (MIC) of all the compounds against three bacterial strains were first determined using the microtiter technique as described above. […] Antimicrobial property of hydraphiles is attributed to the disruption of ion homeostasis in bacteria.
# DH5α E. coli [4] = assay type: cell-based, Escherichia coli; settings: compound alone
# Text: as §2, §1
# S. cerevisiae = assay: Minimum inhibitory concentration (MIC), S. cerevisiae; assay type: cell-based, Saccharomyces cerevisiae; settings: compound alone
# DH5α E. coli [5] = assay: Combination of lariat ether and antibiotic against DH5α E. coli; assay type: cell-based, Escherichia coli; settings: 0.4 vol-% DMSO;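 note: E. coli grown in test-tube liquid culture at a fixed total volume of 2 mL, with the amphiphile and the antibiotic both added to each tube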
# Method: The volume of water added was between 12 to 0.5 μL. The volume of water added was not constant but the volume of media was changed so that the total volume was kept constant at 2 mL.
# as §4
# [6] = tested on: tetracycline resistant E. coli (tetA efflux pump); assay type: cell-based, Escherichia coli
# Method: However, the bacterial strains used herein are multidrug resistant and the effect of hydraphiles on the inhibition of resistance mechanism (efflux pumps) was not known. The hydraphiles and the controls were tested next to see whether they could recover the activity of antibiotics against efflux pump expressing Gram-positive and Gram-negative bacteria. The MIC of antibiotics were determined in the presence of ½ [MIC] or ¼ [MIC] of each hydraphile or the controls used.
# S. aureus 1199B = assay: MIC, S. aureus 1199B; assay type: cell-based, Staphylococcus aureus
# Text: K. pneumoniae (ATCC BAA 2146; another Gram-negative bacterium) that expresses multiple classes of efflux pumps and NDM-1 gene was also used. This K. pneumoniae is a clinically relevant strain that was isolated from a patient. Gram-positive S. aureus 1199B was used that overexpresses the NorA efflux pump. Since ethidium bromide and norfloxacin are the substrates of efflux pumps, S. aureus 1199B was used to evaluate the activity of efflux pumps in the presence of the hydraphiles and other membrane disruptors.
# as §3
# [7] = Rifampicin, amphiphile used 6 μM
# [8] = Tetracycline, amphiphile used 6 μM
# [9] = rifampicin, amphiphile used 8 μM
# [10] = rifampicin, amphiphile used 16 μM
# [11] = rifampicin, amphiphile used 18 μM
# [12] = rifampicin, amphiphile used […] μM
# [13] = tetracycline, amphiphile used 4 μM
# [14] = tetracycline, amphiphile used 16 μM
# [15] = tetracycline, amphiphile used 18 μM
# [16] = tetracycline, amphiphile used […] μM
# [17] = Tetracycline, amphiphile used 16 μM
compound,measurement,setting,value
"CCCCCCCCCCCN1CCOCCOCCN(CCCCCCCCCCC)CCOCCOCC1 [C11 lariat ether, N,N′-bis(n-undecyl)-4,13-diaza-18-crown-6]",MIC,K-12 E. coli [1],24 µM
same,MIC (μM) B. subtilis,B. subtilis,9 µM
same,MIC (μM) E. coli,E. coli,24 µM
same,Antibiotic Used (μM) in combination,K-12 E. coli [2]; [7],10 µM
same,Fold Enhancement,K-12 E. coli [2]; [7],2 fold
same,Antibiotic Used (μM) in combination,K-12 E. coli [2]; [8],2.5 µM
same,Fold Enhancement,K-12 E. coli [2]; [8],~2 fold
same,LD50 to HEK-293,HEK-293 cells,22 µM
same,MIC,[3],24 µM
same,MIC,DH5α E. coli [4],24 µM
same,MIC (μM) S. cerevisiae,S. cerevisiae,1.5 µM
same,Antibiotic Used (μM) in combination,DH5α E. coli [5]; [9],15 µM
same,Fold Enhancement,DH5α E. coli [5]; [9],4 fold
same,Antibiotic Used (μM) in combination,DH5α E. coli [5]; [10],6 µM
same,Fold Enhancement,DH5α E. coli [5]; [10],10 fold
same,Antibiotic Used (μM) in combination,DH5α E. coli [5]; [11],3 µM
same,Fold Enhancement,DH5α E. coli [5]; [11],20 fold
same,Antibiotic Used (μM) in combination,DH5α E. coli [5]; [12],6 µM
same,Fold Enhancement,DH5α E. coli [5]; [12],10 fold
same,Antibiotic Used (μM) in combination,DH5α E. coli [5]; [13],3 µM
same,Fold Enhancement,DH5α E. coli [5]; [13],4 fold
same,Antibiotic Used (μM) in combination,DH5α E. coli [5]; [14],0.25 µM
same,Fold Enhancement,DH5α E. coli [5]; [14],48 fold
same,Antibiotic Used (μM) in combination,DH5α E. coli [5]; [15],1.5 µM
same,Fold Enhancement,DH5α E. coli [5]; [15],8 fold
same,Antibiotic Used (μM) in combination,DH5α E. coli [5]; [16],1 µM
same,Fold Enhancement,DH5α E. coli [5]; [16],12 fold
same,Antibiotic Used (μM) in combination,[6]; amphiphile used 8 μM,175 µM
same,Fold Enhancement,[6]; amphiphile used 8 μM,5 fold
same,Antibiotic Used (μM) in combination,[6]; amphiphile used 16 μM,87 µM
same,Fold Enhancement,[6]; amphiphile used 16 μM,10 fold
same,Antibiotic Used (μM) in combination,[6]; amphiphile used 18 μM,87 µM
same,Fold Enhancement,[6]; amphiphile used 18 μM,10 fold
same,Antibiotic Used (μM) in combination,[6]; amphiphile used […] μM,87 µM
same,Fold Enhancement,[6]; amphiphile used […] μM,10 fold
"c1ccc(CN2CCOCCOCCN(Cc3ccccc3)CCOCCOCC2)cc1 [Dibenzyl diaza crown, N,N′-Dibenzyl-4,13-diaza-18-crown-6, reference compound]",Fold Enhancement,[6]; amphiphile/control 128 μM,1-fold
same,[Tetracycline] μM in combination,[6]; amphiphile/control 128 μM,900 µM
same,Fold Enhancement,"[6]; amphiphile/control 128 μM, listed as Dibenzyl di-aza-crown",did not show any recovery
CCn1cc(C(=O)O)c(=O)c2cc(F)c(N3CCNCC3)cc21 [norfloxacin],susceptibility of S. aureus 1199B,S. aureus 1199B,resistant
"CO[C@H]1/C=C/O[C@@]2(C)Oc3c(C)c(O)c4c(O)c(c(/C=N/N5CCN(C)CC5)c(O)c4c3C2=O)NC(=O)/C(C)=C\C=C\[C@H](C)[C@H](O)[C@@H](C)[C@@H](O)[C@@H](C)[C@H](OC(C)=O)[C@@H]1C [rifampicin, reference compound]",MIC,K-12 E. coli [1]; Escherichia coli,20 µM
same,MIC,DH5α E. coli [4],60 µM
Gramicidin D [reference compound],[Tetracycline] μM in combination,[6]; amphiphile/control 20 μM,900 ± 100 µM
"N,N′-di-n-decyl-4,13-diaza-18-crown-6 [C10 lariat ether]",MIC,K-12 E. coli [1],12 µM
same,MIC (μM) B. subtilis,B. subtilis,2.8 µM
same,MIC (μM) E. coli,E. coli,11 µM
same,Antibiotic Used (μM) in combination,K-12 E. coli [2]; [7],5 µM
same,toxicity to HEK-293 compared among lariat ethers,HEK-293 cells,highest toxicity
same,MIC,[3],16 µM
same,MIC,DH5α E. coli [4],12 µM
same,MIC (μM) S. cerevisiae,S. cerevisiae,2.8 µM
same,Antibiotic Used (μM) in combination,[6]; amphiphile used 6 μM,225 µM
same,Fold Enhancement,[6]; amphiphile used 6 μM,4 fold
same,Antibiotic Used (μM) in combination,[6]; amphiphile used 9 μM,56 µM
same,Fold Enhancement,[6]; amphiphile used 9 μM,16 fold
"N,N′-di-n-dodecyl-4,13-diaza-18-crown-6 [C12 lariat ether]",MIC,K-12 E. coli [1],>512 µM
same,MIC (μM) B. subtilis,B. subtilis,2.5 µM
same,MIC (μM) E. coli,E. coli,>300 µM
same,Antibiotic Used (μM) in combination,K-12 E. coli [2]; [17],3 µM
same,Fold Enhancement,K-12 E. coli [2]; [17],2 fold
same,MIC (μM) S. cerevisiae,S. cerevisiae,2.5 µM
same,Antibiotic Used (μM) in combination,[6]; amphiphile used 192 μM,450 µM
same,Fold Enhancement,[6]; amphiphile used 192 μM,2 fold
"N,N′-di-n-tetradecyl-4,13-diaza-18-crown-6 [C14 lariat ether]",MIC (μM) B. subtilis,B. subtilis,>300 µM
same,MIC (μM) E. coli,E. coli,>300 µM
same,MIC (μM) S. cerevisiae,S. cerevisiae,>300 µM
